Test: xn = mol fraction of the nth substance listed
Settings: Liquid, Vibrating tube method

COC(=O)c1ccccc1 [methyl benzoate] + CCCCCCO
mass density [kg/m3]
Settings | x1 = 0.1004 | x1 = 0.2007 | x1 = 0.3007 | x1 = 0.4013 | x1 = 0.5005 | x1 = 0.6009 | x1 = 0.7 | x1 = 0.8008 | x1 = 0.9009
278.15 K, 100 kPa | 856.6 | 883.8 | 911.4 | 938.8 | 966 | 993.4 | 1020.3 | 1047.7 | 1075.1
278.15 K, 1000 kPa | 857.1 | 884.4 | 911.9 | 939.4 | 966.5 | 993.9 | 1020.8 | 1048.2 | 1075.5
278.15 K, 5000 kPa | 859.7 | 886.9 | 914.4 | 941.8 | 968.9 | 996.3 | 1023.2 | 1050.6 | 1077.9
278.15 K, 10000 kPa | 862.7 | 889.9 | 917.3 | 944.8 | 971.9 | 999.2 | 1026 | 1053.4 | 1080.7
278.15 K, 15000 kPa | 865.6 | 892.8 | 920.3 | 947.6 | 974.7 | 1002 | 1028.9 | 1056.3 | 1083.5
278.15 K, 20000 kPa | 868.5 | 895.6 | 923.1 | 950.4 | 977.5 | 1004.7 | 1031.6 | 1059 | 1086.2
278.15 K, 25000 kPa | 871.2 | 898.3 | 925.8 | 953.1 | 980.2 | 1007.4 | 1034.2 | 1061.6 | 1088.7
278.15 K, 30000 kPa | 873.8 | 901 | 928.4 | 955.8 | 982.8 | 1010 | 1036.8 | 1064.2 | 1091.3
278.15 K, 35000 kPa | 876.5 | 903.6 | 931 | 958.3 | 985.4 | 1012.6 | 1039.4 | 1066.7 | 1093.8
278.15 K, 40000 kPa | 879 | 906.1 | 933.6 | 960.9 | 987.9 | 1015.1 | 1041.9 | 1069.2 | 1096.3
278.15 K, 45000 kPa | 881.5 | 908.6 | 936 | 963.3 | 990.4 | 1017.6 | 1044.3 | 1071.7 | 1098.7
278.15 K, 50000 kPa | 883.9 | 911.1 | 938.5 | 965.8 | 992.8 | 1020 | 1046.7 | 1074 | 1101.1
278.15 K, 55000 kPa | 886.3 | 913.4 | 940.8 | 968.1 | 995.2 | 1022.3 | 1049.1 | 1076.4 | 1103.5
278.15 K, 60000 kPa | 888.4 | 915.6 | 943 | 970.3 | 997.3 | 1024.5 | 1051.4 | 1078.7 | 1105.6
288.15 K, 100 kPa | 849.1 | 876 | 903.2 | 930.4 | 957.3 | 984.4 | 1011.1 | 1038.4 | 1065.5
288.15 K, 1000 kPa | 849.7 | 876.6 | 903.8 | 931 | 957.9 | 985 | 1011.7 | 1039 | 1066
288.15 K, 5000 kPa | 852.3 | 879.2 | 906.4 | 933.6 | 960.4 | 987.5 | 1014.2 | 1041.4 | 1068.5
288.15 K, 10000 kPa | 855.5 | 882.4 | 909.5 | 936.7 | 963.5 | 990.6 | 1017.2 | 1044.5 | 1071.5
288.15 K, 15000 kPa | 858.5 | 885.5 | 912.6 | 939.7 | 966.5 | 993.6 | 1020.2 | 1047.4 | 1074.4
288.15 K, 20000 kPa | 861.5 | 888.4 | 915.5 | 942.6 | 969.4 | 996.4 | 1023 | 1050.2 | 1077.2
288.15 K, 25000 kPa | 864.3 | 891.2 | 918.3 | 945.4 | 972.2 | 999.3 | 1025.8 | 1053 | 1080
288.15 K, 30000 kPa | 867.1 | 894 | 921.1 | 948.2 | 975 | 1002 | 1028.5 | 1055.7 | 1082.6
288.15 K, 35000 kPa | 869.8 | 896.7 | 923.8 | 950.9 | 977.7 | 1004.6 | 1031.2 | 1058.3 | 1085.2
288.15 K, 40000 kPa | 872.4 | 899.3 | 926.4 | 953.5 | 980.2 | 1007.2 | 1033.8 | 1060.9 | 1087.8
288.15 K, 45000 kPa | 875 | 901.8 | 929 | 956 | 982.8 | 1009.8 | 1036.3 | 1063.4 | 1090.3
288.15 K, 50000 kPa | 877.5 | 904.4 | 931.5 | 958.5 | 985.3 | 1012.3 | 1038.8 | 1065.9 | 1092.8
288.15 K, 55000 kPa | 879.9 | 906.8 | 933.9 | 961 | 987.8 | 1014.7 | 1041.3 | 1068.3 | 1095.2
288.15 K, 60000 kPa | 882.3 | 909.2 | 936.2 | 963.2 | 990 | 1017 | 1043.7 | 1070.6 | 1097.5
298.15 K, 100 kPa | 841.5 | 868.2 | 895.1 | 922 | 948.6 | 975.5 | 1002 | 1029.1 | 1056
298.15 K, 1000 kPa | 842.2 | 868.8 | 895.7 | 922.6 | 949.2 | 976.1 | 1002.6 | 1029.7 | 1056.6
298.15 K, 5000 kPa | 844.9 | 871.6 | 898.4 | 925.3 | 951.9 | 978.8 | 1005.3 | 1032.3 | 1059.2
298.15 K, 10000 kPa | 848.3 | 874.9 | 901.7 | 928.5 | 955.1 | 982 | 1008.4 | 1035.4 | 1062.3
298.15 K, 15000 kPa | 851.5 | 878 | 904.9 | 931.7 | 958.3 | 985.1 | 1011.5 | 1038.5 | 1065.3
298.15 K, 20000 kPa | 854.5 | 881.1 | 907.9 | 934.7 | 961.3 | 988.1 | 1014.5 | 1041.5 | 1068.3
298.15 K, 25000 kPa | 857.5 | 884.1 | 910.9 | 937.7 | 964.2 | 991 | 1017.4 | 1044.4 | 1071.2
298.15 K, 30000 kPa | 860.4 | 886.9 | 913.8 | 940.5 | 967.1 | 993.9 | 1020.3 | 1047.2 | 1074
298.15 K, 35000 kPa | 863.2 | 889.7 | 916.6 | 943.3 | 969.9 | 996.6 | 1023 | 1049.9 | 1076.7
298.15 K, 40000 kPa | 865.9 | 892.5 | 919.3 | 946.1 | 972.6 | 999.3 | 1025.7 | 1052.6 | 1079.4
298.15 K, 45000 kPa | 868.6 | 895.1 | 921.9 | 948.7 | 975.3 | 1002 | 1028.4 | 1055.3 | 1082
298.15 K, 50000 kPa | 871.1 | 897.7 | 924.5 | 951.3 | 977.8 | 1004.6 | 1031 | 1057.9 | 1084.6
298.15 K, 55000 kPa | 873.7 | 900.2 | 927.1 | 953.9 | 980.4 | 1007.2 | 1033.5 | 1060.4 | 1087.1
298.15 K, 60000 kPa | 876 | 902.5 | 929.4 | 956.2 | 982.7 | 1009.5 | 1035.9 | 1062.7 | 1089
308.15 K, 100 kPa | 834 | 860.4 | 886.9 | 913.6 | 939.9 | 966.6 | 993 | 1019.9 | 1046.6
308.15 K, 1000 kPa | 834.6 | 861.1 | 887.5 | 914.2 | 940.6 | 967.2 | 993.7 | 1020.5 | 1047.2
308.15 K, 5000 kPa | 837.5 | 864 | 890.4 | 917.1 | 943.4 | 970 | 996.4 | 1023.2 | 1049.9
308.15 K, 10000 kPa | 841 | 867.4 | 893.8 | 920.5 | 946.8 | 973.4 | 999.7 | 1026.5 | 1053.1
308.15 K, 15000 kPa | 844.3 | 870.7 | 897.1 | 923.7 | 950 | 976.6 | 1003 | 1029.7 | 1056.4
308.15 K, 20000 kPa | 847.5 | 873.9 | 900.3 | 926.9 | 953.2 | 979.8 | 1006.1 | 1032.8 | 1059.4
308.15 K, 25000 kPa | 850.6 | 877 | 903.4 | 930 | 956.3 | 982.9 | 1009.1 | 1035.8 | 1062.5
308.15 K, 30000 kPa | 853.6 | 879.9 | 906.4 | 933 | 959.3 | 985.9 | 1012.1 | 1038.8 | 1065.3
308.15 K, 35000 kPa | 856.5 | 882.8 | 909.3 | 935.9 | 962.1 | 988.8 | 1014.9 | 1041.7 | 1068.2
308.15 K, 40000 kPa | 859.3 | 885.7 | 912.1 | 938.7 | 965 | 991.6 | 1017.7 | 1044.5 | 1071
308.15 K, 45000 kPa | 862.1 | 888.4 | 914.9 | 941.5 | 967.8 | 994.3 | 1020.5 | 1047.2 | 1073.7
308.15 K, 50000 kPa | 864.7 | 891.1 | 917.6 | 944.1 | 970.5 | 997.1 | 1023.2 | 1049.9 | 1076.4
308.15 K, 55000 kPa | 867.4 | 893.7 | 920.2 | 946.8 | 973.1 | 999.7 | 1025.8 | 1052.5 | 1079.1
308.15 K, 60000 kPa | 869.7 | 896.1 | 922.6 | 949.4 | 975.5 | 1002.1 | 1028.2 | 1055 | 1081.5
318.15 K, 100 kPa | 826.4 | 852.5 | 878.7 | 905.1 | 931.2 | 957.7 | 983.9 | 1010.7 | 1037.2
318.15 K, 1000 kPa | 827.1 | 853.1 | 879.4 | 905.8 | 931.9 | 958.4 | 984.6 | 1011.3 | 1037.8
318.15 K, 5000 kPa | 830.1 | 856.2 | 882.4 | 908.7 | 934.8 | 961.3 | 987.5 | 1014.2 | 1040.7
318.15 K, 10000 kPa | 833.8 | 859.7 | 886 | 912.3 | 938.4 | 964.9 | 991 | 1017.6 | 1044.1
318.15 K, 15000 kPa | 837.2 | 863.2 | 889.4 | 915.8 | 941.8 | 968.2 | 994.3 | 1021 | 1047.4
318.15 K, 20000 kPa | 840.6 | 866.6 | 892.8 | 919.1 | 945.2 | 971.5 | 997.6 | 1024.3 | 1050.6
318.15 K, 25000 kPa | 843.8 | 869.8 | 896 | 922.3 | 948.4 | 974.6 | 1000.8 | 1027.4 | 1053.8

— the NIST ThermoML archive (doi:10.1016/j.jct.2011.02.008)
